Values after ≈ are worked out from the molar mass of the structure shown. “Also recorded” adds a separate entry of the source. Like-named read-outs stand apart in the source and are kept apart here. Numbered stars: 1 amine (or outer) side, 2 acyl side, 3 side chain; on linkers, the order of the positions; unused ones are H or OH. Bridge positions count the residues as written; N and C are the ends. Square brackets hold non-standard residues; d marks the D form. Side chains are listed from the residue outwards. Peptide text beside a SMILES is read from it. * marks the point of attachment. d(εLys) = N[C@H](CCCCN[*:1])C(=O)[*:2]; εLys = N[C@@H](CCCCN[*:1])C(=O)[*:2]; Fmoc = O=C(OCC1c2ccccc2-c2ccccc21)*; X1 = CC[C@H](C)CCCCC(=O)*; Dab = NCC[C@H](N)C(=O)O
Key:
[1] = test system: Pseudomonas aeruginosa (NCTC 13437), clinical multidrug-resistant isolate
[2] = test system: S. aureus (ATCC 12600); details: ATCC 12600, 24 h
[3] = test system: L929 murine fibroblast cells; assay: MTT cell viability (cytocompatibility) assay; type: cell-based; details: L929 murine fibroblasts, after 48 h, n = 3
Description: L929 murine fibroblast cells (ECACC General Cell Collection) were grown in Dulbecco’s modified Eagle’s medium (DMEM) supplemented with 10% fetal bovine serum (FBS), 20 mM HEPES, and 1% GlutaMAX. The cells were maintained at pH 7.4, 37 °C, and 5% CO2 in 25 cm^2 cell culture flasks.
Assays were conducted as described previously.[23]
To be of utility as practical antimicrobials, bioactive molecules must show selective activity compared to their toxicity toward mammalian cells. The cytocompatibility of our peptides was investigated by a cell metabolic activity assay using MTT [3-(4,5-dimethylthiazol-2-yl)-2,5-diphenyltetrazolium bromide] assays using L929 murine fibroblast cell lines.
Figure 6 Cell viability data (with L929 murine fibroblasts) of tripodal peptides: (a) TP, (b) DTP, (c) FTP, and (d) FDTP. The error bar corresponds to the standard deviation of the value from the mean (n = 3, *p < 0.05, **p < 0.01 by performing the Anova statistical test).

[4] = test system: human red blood cells (hRBCs); details: 0.5% (v/v) hRBCs in PBS, peptide 0–0.1 wt %, 1 h, hemoglobin at 414 nm, normalised to 0.1% Triton X-100; mean of three independent experiments
[5] = test system: E. coli O157:H7 strain EDL933
[6] = test system: Salmonella enterica serovar Typhimurium; details: 24 h
[7] = Critical aggregation concentration by ANS fluorescence probe assay; type: physicochemical; details: emission 486 nm, breakpoint of I/I0 vs log(c/wt %), aqueous solution in ultrapure water, pH 6.5
Description: Fluorescence experiments were carried out as described previously.[35]
To determine the CAC value of individual peptides, the results were plotted as I/I0 versus log(c/wt %), where I indicates the maximum fluorescence intensity of ANS at a given sample concentration and I0 denotes the peak intensity for the ANS solution without peptide.
Critical aggregation concentration (CAC) values of the tripodal peptides were obtained from fluorescence probe assays using 8-anilo-1-naphthalenesulfonic acid (ANS).

[8] = Cryo-TEM imaging of self-assembled nanostructure; type: physicochemical; details: 1 wt % aqueous solutions, above CAC
Description: Imaging was carried out as described previously.[35],[75]
To examine the morphology of the self-assembled nanostructure of these three arm trifunctional peptides, cryo-TEM imaging was performed for 1 wt % solutions, above the measured CAC values. […] In many cases, these structures are deposited on the lacey carbon grid in preference to, or in addition to, the vitrified grid holes.

[9] = test system: Klebsiella aerogenes; details: 24 h
[10] = test system: E. coli EDL933 bacterial membrane; assay: Bacteria live/dead (DMAO/EthD-III) staining, fluorescence microscopy; type: cell-based, Escherichia coli; details: E. coli EDL933 treated at MBC for 1 h at 37 °C; DMAO green / EthD-III red
Description: Dual staining of peptide-treated bacteria, to detect potential membrane disruption,[80] was performed using a bacteria live/dead staining kit (PromoKine). This process involves incubating samples with fluorescent, nucleic acid dyes (DMAO, green, and EthD-III, red) that, respectively, are either able or unable to cross the bacterial membrane. […] Next, they were incubated with set volumes of both dyes for 15 min at room temperature. Slides were mounted using 5 μL of the stained solution onto glass coverslips and observed under a Nikon Eclipse Ti inverted microscope using a 10× objective. Images of different treatments, including controls were captured and compared.
Figure 8 DMAO/EtD-III stained images showing the peptide effects on the integrity of the bacterial membrane. Fluorescence microscopy was used to visualize DMAO and EtD-III dyes binding to the bacterial DNA. In this experiment, E. coli EDL933 was incubated with peptides at their minimum bactericidal concentration (MBC) for 1 h at 37 °C, followed by staining with a bacteria live/dead staining kit (PromoKine). Cells with disrupted membranes are stained red (EtD-III), while cells with intact membranes are stained green (DMAO).

[11] = test system: E. coli EDL933; assay: SEM imaging of peptide-treated bacteria; type: cell-based, Escherichia coli; details: E. coli EDL933, peptide at MBC (31.25 μg/mL), 1 h at 37 °C
[12] = P. aeruginosa NCTC13437, 24 h incubation, 5 × 10^6 CFU/mL, absorbance 600 nm, mean of three independent experiments
[13] = P. aeruginosa NCTC13437, 24 h incubation, aliquots plated on MHA, no viable colonies
[14] = E. coli O157:H7 EDL933, 24 h incubation, 5 × 10^6 CFU/mL, absorbance 600 nm, mean of three independent experiments
[15] = E. coli O157:H7 EDL933, 24 h incubation, aliquots plated on MHA, no viable colonies

For NCCCC[C@@H](N)C(=O)N[C@H](CCCCN)C(=O)N[C@@H](Cc1ccc(O)cc1)C(=O)NCCCC[C@H](NC(=O)[C@H](Cc1ccc(O)cc1)NC(=O)[C@@H](CCCCN)NC(=O)[C@H](N)CCCCN)C(=O)N[C@@H](Cc1ccc(O)cc1)C(=O)N[C@H](CCCCN)C(=O)N[C@H](CCCCN)C(N)=O [DTP, (kkY)3K] (H-[dK][dK]YK([Tyr-dK-dK])Y[dK][dK]-NH2), the MIC [1, 12] was > 1000 µg/mL, the MBC [1, 13] was > 1000 µg/mL and the MBC [2] was > 1000 µg/mL. The MIC [2] was > 1000 µg/mL, the “Cell viability / cytotoxicity (MTT)” value [3] was “nor do they or reduce the viability of fibroblasts” and the “Hemolysis of hRBCs” value [4] was “did not lyse hRBCs”. The MIC [5, 14] was 500 µg/mL (≈ 356 µM), the MBC [5, 15] was 1000 µg/mL (≈ 712 µM) and the MBC [6] was > 1000 µg/mL. For the same molecule, the MIC [6] was > 1000 µg/mL, the “Critical aggregation concentration (CAC)” value [7] was 0.0069 ± 0.002 wt % and the “Morphology of self-assembled nanostructure (cryo-TEM)” value (from here on “Morphology … (cryo-TEM)”) [8] was “irregular globular aggregates”.
Molecule NCCCC[C@@H](NC(=O)[C@@H](CCCCN)NC(=O)[C@H](Cc1ccc(O)cc1)NC(=O)[C@H](CCCCNC(=O)[C@H](Cc1ccc(O)cc1)NC(=O)[C@@H](CCCCN)NC(=O)[C@H](N)CCCCNC(=O)OCC1c2ccccc2-c2ccccc21)NC(=O)[C@H](Cc1ccc(O)cc1)NC(=O)[C@@H](CCCCN)NC(=O)[C@H](N)CCCCNC(=O)OCC1c2ccccc2-c2ccccc21)C(N)=O [FDTP, Fmoc-(kkY)3K] (H-[dK](Fmoc)[dK]YK([Tyr-dK-d(εLys)-Fmoc])Y[dK][dK]-NH2) has an MBC [9] of 62.5 µg/mL (≈ 33.8 µM), an MIC [9] of 62.5 µg/mL (≈ 33.8 µM) and an MIC [1, 12] of 125 µg/mL (≈ 67.6 µM). It also gave an MBC [1, 13] of 250 µg/mL (≈ 135 µM), an MBC [2] of 62.5 µg/mL (≈ 33.8 µM) and an MIC [2] of 31.2 µg/mL (≈ 16.9 µM). For the same molecule, the “Effect on integrity of the bacterial membrane (live/dead staining)” value [10] was “rapid, membrane-targeting effects”, the “Bacterial surface morphology by SEM” value [11] was “Significant disruption of the surface of the bacteria” and the “Bacterial surface morphology by SEM” value ([11]; listed as FTDP) was “collapsed shapes”. For the same molecule, the “Cell viability / cytotoxicity (MTT)” value [3] was “death of fibroblasts; also recorded: cytotoxicity at the two highest concentrations studied”, the “Hemolysis of hRBCs” value [4] was “greater leakage of hRBCs” and the MIC [5, 14] was 15.62 µg/mL (≈ 8.45 µM). For the same molecule, the MBC [5, 15] was 31.25 µg/mL (≈ 16.9 µM), the MBC [6] was 500 µg/mL (≈ 271 µM) and the MIC [6] was 250 µg/mL (≈ 135 µM). The “Critical aggregation concentration (CAC)” value [7] was 0.0123 ± 0.003 wt % and the “Morphology … (cryo-TEM)” value [8] was “irregular globular aggregates”.
NCCCC[C@H](NC(=O)[C@H](CCCCN)NC(=O)[C@H](Cc1ccc(O)cc1)NC(=O)[C@H](CCCCNC(=O)[C@H](Cc1ccc(O)cc1)NC(=O)[C@H](CCCCN)NC(=O)[C@@H](N)CCCCNC(=O)OCC1c2ccccc2-c2ccccc21)NC(=O)[C@H](Cc1ccc(O)cc1)NC(=O)[C@H](CCCCN)NC(=O)[C@@H](N)CCCCNC(=O)OCC1c2ccccc2-c2ccccc21)C(N)=O [FTP, Fmoc-(KKY)3K] (H-K(Fmoc)KYK([Tyr-Lys-εLys-Fmoc])YKK-NH2) gave an MBC [9] of 62.5 µg/mL (≈ 33.8 µM), an MIC [9] of 62.5 µg/mL (≈ 33.8 µM) and an MIC [1, 12] of 125 µg/mL (≈ 67.6 µM). The MBC [1, 13] was 250 µg/mL (≈ 135 µM), the MBC [2] was 250 µg/mL (≈ 135 µM) and the MIC [2] was 125 µg/mL (≈ 67.6 µM). The “Effect on integrity of the bacterial membrane (live/dead staining)” value [10] was “rapid, membrane-targeting effects”, the MIC [5, 14] was 62.5 µg/mL (≈ 33.8 µM) and the MBC [5, 15] was 125 µg/mL (≈ 67.6 µM). For the same molecule, the MBC [6] was 500 µg/mL (≈ 271 µM), the MIC [6] was 250 µg/mL (≈ 135 µM) and the “Critical aggregation concentration (CAC)” value [7] was 0.0113 ± 0.005 wt %. The “Morphology … (cryo-TEM)” value [8] was “sheet-like structures”.
With NCCCC[C@H](NC(=O)[C@H](CCCCN)NC(=O)[C@H](Cc1ccc(O)cc1)NC(=O)[C@H](CCCCNC(=O)[C@H](Cc1ccc(O)cc1)NC(=O)[C@H](CCCCN)NC(=O)[C@@H](N)CCCCN)NC(=O)[C@H](Cc1ccc(O)cc1)NC(=O)[C@H](CCCCN)NC(=O)[C@@H](N)CCCCN)C(N)=O [TP, (KKY)3K] (H-KKYK([Tyr-Lys-Lys])YKK-NH2) the “Cell viability / cytotoxicity (MTT)” value [3] was “nor do they or reduce the viability of fibroblasts”, the “Hemolysis of hRBCs” value [4] was “did not lyse hRBCs” and the MIC [5, 14] was > 1000 µg/mL. The MBC [5, 15] was > 1000 µg/mL, the “Critical aggregation concentration (CAC)” value [7] was 0.0065 ± 0.004 wt % and the “Morphology … (cryo-TEM)” value [8] was “irregular globular aggregates”.
CC[C@H](C)CCCCC(=O)N[C@@H](CCN)C(=O)N[C@H](C(=O)N[C@@H](CCN)C(=O)N[C@H]1CCNC(=O)[C@H]([C@@H](C)O)NC(=O)[C@H](CCN)NC(=O)[C@H](CCN)NC(=O)[C@H](CC(C)C)NC(=O)[C@@H](Cc2ccccc2)NC(=O)[C@H](CCN)NC1=O)[C@@H](C)O [polymyxin B, reference compound] (X1-[Dab]T[Dab][Dab][Dab][dF]L[Dab][Dab]T; lactam 4-C (inferred); N-terminus assumed) showed an MBC [9] of 6.25 µg/mL (≈ 5.19 µM), an MIC [9] of 3.12 µg/mL (≈ 2.59 µM) and an MBC ([1]; NCTC 13437, 24 h) of 25 µg/mL (≈ 20.8 µM). For the same molecule, the MIC ([1]; NCTC 13437, 24 h) was 6.25 µg/mL (≈ 5.19 µM), the MBC [2] was > 100 µg/mL and the MIC [2] was > 100 µg/mL. For the same molecule, the MBC ([5]; O157:H7, 24 h) was 6.25 µg/mL (≈ 5.19 µM), the MIC ([5]; O157:H7, 24 h) was 3.12 µg/mL (≈ 2.59 µM) and the MBC [6] was 12.5 µg/mL (≈ 10.4 µM). It also gave an MIC [6] of 6.25 µg/mL (≈ 5.19 µM).

Source: publication PMC11752523, “Effect of Chirality and Amphiphilicity on the Antimicrobial Activity of Tripodal Lysine-Based Peptides” (ACS Applied Bio Materials, 2025)
